Data set [1] concerns C8166 (human T cell line). The experiment in a line: Toxicity to C8166 cells (MTT, day 7). Format: cell-based. The settings on record: C8166, day 7, MTT. As for the experimental part:
(§1) (2) Toxicity of compounds zhangnan-5, zhangnan-7 and zhangnan-8 to C8166 and PBMC cells:
(§2) C8166 (human T cell line) and PBM (using lymphocyte isolation liquid to separate from normal human peripheral blood, and adhered mononuclear cell separated from PBMC) cells in exponential phase are taken. The cells are resuspended after centrifugal (1000 r•min-1, 10 min), and the concentrations are adjusted to 4×10^5/ml and 2×10^6/ml. The test samples are double diluted on the 96-hole cell culture plate. In total 6 gradients are set, each having 3 duplicate holes. In addition, positive control group and cell control group are set. Upon adding cell suspended liquid, the test samples are placed in incubator of 370C and 5% CO2 for incubation. On the seventh (7th) day, MTT method is used to determine toxicity of the samples to cells.
(§3) Inhibition ratio of cell growth (%)=(1−experimental hole OD value/control hole (OD value)×100%

Another data set has as its system normal person PBMC. Briefly: Toxicity to PBMC cells (MTT, day 7). The class given is cell-based, human. The settings on record: day 7, MTT. On the procedure:
as §1, §2, §3

The subject of a further data set is HIV-1IIIB. Briefly: Inhibition of HIV-1IIIB induced syncytium formation in C8166 cells. The class given is cell-based. Particulars: for therapeutic index TI: HIV-1IIIB syncytium, C8166, TI=IC50/EC50; for EC50: HIV-1IIIB, C8166 cells, third day after infection. An excerpt: (3) The inhibition effects of compounds zhangnan-5, zhangnan-7 and zhangnan-8 to virus HIV-1IIIB inducing C8166 cell to form syncytium: (see JIANG, Haiou; WANG, Xu; L I, Rurun; CHEN, Dagang; B I, Kunlong, Experimental Research on Recipe Sanhuangsan Capsule for Resisting AIDS virus in Vitro, [J]. Shandong Journal of Traditional Chinese medicine, 2005.8 (1):21-26).
The test sample is double diluted with culture medium on the 96-hole flat culture plate. There are 8 dilutions in total. Each hole 100 ul has 2 duplicate holes. In addition, there are positive control group, cell control group and virus control group. 80 ul C8166 cell of 4×10^5/ml is added into each hole, and then 20 ul virus HIV-1IIIB supernatant is added into each hole. The final volume of each hole is 200 ul. The sample is placed in incubator of 370C, 5% CO2 for cultivation. […] Under the inverted microscope, the number of syncytium formed by virus HIV-1IIIB inducing C8166 cell is counted. […] The following formula is used to calculate the inhibition ratio of the sample to syncytium.
Inhibition ratio formed by syncytium (%)=(1−experimental hole syncytium number/control hole syncytium number)×100%

The next data set deals with HIV-1Ada-M. Briefly: ELISA of HIV-1Ada-M p24 antigen expression in PBMC. The class given is cell-based. The settings on record: for therapeutic index TI: HIV-1Ada-M p24, PBMC, TI=IC50/EC50. An excerpt: (4) Quantitative Enzyme Linked Immunoadsorbent method (EIISA) detecting inhibiting effects of compounds to virus HIV-1Ada-Mp24 expression: (see JIANG, Haiou; WANG, Xu; L I, Rurun; CHEN, Dagang; B I, Kunlong, Experimental Research on Recipe Sanhuangsan Capsule Resisting AIDS Virus in Vitro, [J], Shandong Journal of Traditional Chinese medicine, 2005.8 (1):21-26).
Multi-heads sample injector is used to conduct triple dilution to the sample on the 96-hole culture plate. There are 6 dilutions, in which each dilution has 3 duplicate holes, and each hole is 100 ul. […] On the 96-hole flat culture plate, each hole is added with 25 ul virus stock solution containing 1000˜5000 pg/well P24 antigen, which is sufficiently blended. 75 ul mononuclear cell PBMC suspension liquid is added (3×10^5 cell numbers/hole). Upon placing in incubator of 37° C., 5% CO2 to the third day, 100 ul of culture medium is added to each hole. On the 7th day, cell culture supernatant is collected for p24 antigen test. According to p24 kit description, ELISA method is used to measure the virus HIV-1 p24 antigen concentration of each sample cell culture hole supernatant. The following formula is used to calculate the inhibition ratio of sample to virus.
Inhibition ratio of sample to virus p24 antigen (%)=(1−experimental hole OD value/cell+virus control hole OD value)×100%. Reed and Mueneh method is used to calculate EC50 of the test sample, and to further calculate the therapeutic index (TI) (TI=IC50/EC50). […] The positive control SCH-C, 23-hydroxyl-betulinic acid, compounds zhangnan-5, zhangnan-7 and zhangnan-8 all reach an inhibition ratio above 50% within the tested range. The positive control SCH-C inhibits HIV-1Ada-M p24 antigen expression. […] In addition, the inhibition effect to HIV-1Ada-M has significant dose-effect relationship with its concentration.
In general terms: An ELISA detects its analyte on a solid surface through an enzyme-linked reagent.

For data set [2] the following is noted: when even reaching 500 mg/kg; cited from earlier work.

Each structure is given as a SMILES string. Like-named read-outs stand apart in the source and are kept apart here.

Consider `C=C(C)[C@@H]1CC[C@]2(C(=O)O)CC[C@]3(C)[C@H](CC[C@@H]4[C@@]5(C)CC[C@H](O)[C@@](C)(CO)[C@@H]5CC[C@]43C)[C@@H]12` [23-hydroxyl-betulinic acid, reference compound], for which the figures for the IC50 (in data set [1] (read-out: IC50 (50% inhibition concentration) to C8166 cell); with normal person PBMC) were 15.1 ± 3.57 µM and 14.9 ± 3.46 µM, respectively. For the same compound, the entries for the “therapeutic index TI” value with HIV-1IIIB and in the data set with HIV-1Ada-M were 13 and 7.8, respectively. For the same compound, the half-maximal effective concentration (EC50) – broadly, the concentration giving half of the maximal effect – with HIV-1IIIB turned out to be 1.2 ± 0.23 µM; in the data set with HIV-1Ada-M (HIV-1Ada-M, PBMC, 7th day, ELISA, read-out: EC50, inhibition of p24 antigen expression), 1.9 ± 0.39 µM.
For the compound `Cc1cn([C@H]2C[C@H](N=[N+]=[N-])[C@@H](CO)O2)c(=O)[nH]c1=O` [AZT, reference compound], the IC50 in data set [1] (positive control, read-out: toxicity to 50% of C8166 cells) amounted to 3440 µM. In the data set with HIV-1IIIB, the “therapeutic index TI” value was 2473 and the EC50 was 1.39 µM.
For `C=C(C)[C@@H]1CC[C@]2(C(=O)O)CC[C@]3(C)[C@H](CC[C@@H]4[C@@]5(C)CC[C@H](O)C(C)(C)[C@@H]5CC[C@]43C)[C@@H]12` [Betulinic acid, 3β-hydroxy-1up-20(29)-ene-28-oic acid], in data set [2], the toxic reaction entry was “no obvious toxic reaction”.
On to `CCO/N=C(\c1ccc(Br)cc1)C1CCN(C2(C)CCN(C(=O)c3c(C)cc[n+]([O-])c3C)CC2)CC1` [SCH-C, reference compound], for which the “therapeutic index TI” value in the data set on HIV-1Ada-M was 2583.
